Measured values taken from ChEMBL document CHEMBL4229521, “Identification of a novel series of potent and selective CCR6 inhibitors as biological probes” (Bioorg Med Chem Lett, 2018).

How the values were obtained:
[1] = molecular target: T1, C-C chemokine receptor type 6 (Homo sapiens, UniProt P51684); experiment: Inhibition of human CCR6 expressed in CHO cells assessed as decrease in CCL20-induced reduction of forskolin-stimulated cAMP accumulation preincubated for 30 mins followed agonist addition measured after 30 mins by HTRF assay; assay type: functional, cell-based
T1 sequence (P51684 whole entry): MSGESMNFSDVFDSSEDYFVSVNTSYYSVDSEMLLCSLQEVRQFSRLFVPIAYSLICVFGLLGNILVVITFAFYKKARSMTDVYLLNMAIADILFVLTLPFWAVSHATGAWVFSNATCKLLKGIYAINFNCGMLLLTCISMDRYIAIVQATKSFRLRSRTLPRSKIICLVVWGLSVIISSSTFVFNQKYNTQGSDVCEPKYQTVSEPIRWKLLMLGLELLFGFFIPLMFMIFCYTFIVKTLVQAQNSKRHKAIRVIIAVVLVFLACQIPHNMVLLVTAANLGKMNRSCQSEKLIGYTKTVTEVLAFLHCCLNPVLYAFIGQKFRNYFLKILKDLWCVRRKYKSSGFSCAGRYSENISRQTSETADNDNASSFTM

[2] = molecular target: T2, C-C chemokine receptor type 7 (Homo sapiens, UniProt P32248); experiment: Inhibition of human CCR7 expressed in CHO cells assessed as decrease in CCL19-induced reduction of forskolin-stimulated cAMP accumulation preincubated for 30 mins followed agonist addition measured after 30 mins by HTRF assay; assay type: functional, cell-based
T2 sequence (P32248 whole entry): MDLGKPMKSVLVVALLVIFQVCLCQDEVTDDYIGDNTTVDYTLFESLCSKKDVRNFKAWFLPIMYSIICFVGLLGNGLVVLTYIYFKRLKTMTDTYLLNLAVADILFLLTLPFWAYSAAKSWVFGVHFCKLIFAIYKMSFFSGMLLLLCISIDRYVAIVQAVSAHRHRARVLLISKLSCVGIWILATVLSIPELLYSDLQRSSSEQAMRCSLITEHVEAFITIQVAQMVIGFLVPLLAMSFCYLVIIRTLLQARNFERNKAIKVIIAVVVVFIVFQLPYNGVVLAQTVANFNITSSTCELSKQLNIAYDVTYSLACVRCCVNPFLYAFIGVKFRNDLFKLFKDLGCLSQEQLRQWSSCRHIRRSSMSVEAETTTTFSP

[3] = molecular target: T3, C-C chemokine receptor type 6 (Macaca mulatta, UniProt H9YX08); experiment: Inhibition of monkey CCR6 expressed in CHO cells assessed as decrease in CCL20-induced reduction of forskolin-stimulated cAMP accumulation preincubated for 30 mins followed agonist addition measured after 30 mins by HTRF assay; assay type: cell-based
T3 sequence (H9YX08 whole entry): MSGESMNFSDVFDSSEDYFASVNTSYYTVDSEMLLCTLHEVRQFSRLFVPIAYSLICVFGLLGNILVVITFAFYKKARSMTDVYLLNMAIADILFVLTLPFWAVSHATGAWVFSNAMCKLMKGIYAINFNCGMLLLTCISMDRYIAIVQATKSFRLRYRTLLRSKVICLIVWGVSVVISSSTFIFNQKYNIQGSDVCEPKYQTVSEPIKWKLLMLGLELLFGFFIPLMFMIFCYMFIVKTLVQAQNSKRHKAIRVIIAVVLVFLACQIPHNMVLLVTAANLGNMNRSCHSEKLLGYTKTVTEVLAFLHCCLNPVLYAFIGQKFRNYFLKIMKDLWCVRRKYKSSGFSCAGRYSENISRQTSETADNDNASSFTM

[4] = molecular target: T4, C-C chemokine receptor type 1 (Homo sapiens, UniProt P32246); experiment: Inhibition of human CCR1 expressed in CHO cells assessed as decrease in RANTES-induced reduction of forskolin-stimulated cAMP accumulation preincubated for 30 mins followed agonist addition measured after 30 mins by HTRF assay; assay type: functional, cell-based
T4 sequence (P32246 whole entry): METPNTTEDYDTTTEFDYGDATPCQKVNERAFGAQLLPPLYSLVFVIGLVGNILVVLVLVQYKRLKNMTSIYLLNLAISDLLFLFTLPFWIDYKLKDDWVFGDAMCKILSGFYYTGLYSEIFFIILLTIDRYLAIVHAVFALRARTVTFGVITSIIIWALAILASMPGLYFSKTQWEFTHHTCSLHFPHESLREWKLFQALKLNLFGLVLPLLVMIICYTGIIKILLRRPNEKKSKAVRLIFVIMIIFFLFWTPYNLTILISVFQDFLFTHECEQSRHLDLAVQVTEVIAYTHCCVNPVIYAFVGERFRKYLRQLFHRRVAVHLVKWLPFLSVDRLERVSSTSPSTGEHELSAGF

[5] = Volume of distribution at steady state in cynomolgus monkey at 0.1 mg/kg, iv or 1 mg/kg, po; assay type: ADME, organism-based, Macaca fascicularis; settings: in vivo, read-out: Vdss
[6] = Oral bioavailability in cynomolgus monkey at 1 mg/kg; assay type: ADME, organism-based, Macaca fascicularis; settings: in vivo
[7] = molecular target: T5, Voltage-gated inwardly rectifying potassium channel KCNH2 (Homo sapiens, UniProt Q12809); experiment: Inhibition of human ERG in absence of BSA
T5 sequence (Q12809 whole entry): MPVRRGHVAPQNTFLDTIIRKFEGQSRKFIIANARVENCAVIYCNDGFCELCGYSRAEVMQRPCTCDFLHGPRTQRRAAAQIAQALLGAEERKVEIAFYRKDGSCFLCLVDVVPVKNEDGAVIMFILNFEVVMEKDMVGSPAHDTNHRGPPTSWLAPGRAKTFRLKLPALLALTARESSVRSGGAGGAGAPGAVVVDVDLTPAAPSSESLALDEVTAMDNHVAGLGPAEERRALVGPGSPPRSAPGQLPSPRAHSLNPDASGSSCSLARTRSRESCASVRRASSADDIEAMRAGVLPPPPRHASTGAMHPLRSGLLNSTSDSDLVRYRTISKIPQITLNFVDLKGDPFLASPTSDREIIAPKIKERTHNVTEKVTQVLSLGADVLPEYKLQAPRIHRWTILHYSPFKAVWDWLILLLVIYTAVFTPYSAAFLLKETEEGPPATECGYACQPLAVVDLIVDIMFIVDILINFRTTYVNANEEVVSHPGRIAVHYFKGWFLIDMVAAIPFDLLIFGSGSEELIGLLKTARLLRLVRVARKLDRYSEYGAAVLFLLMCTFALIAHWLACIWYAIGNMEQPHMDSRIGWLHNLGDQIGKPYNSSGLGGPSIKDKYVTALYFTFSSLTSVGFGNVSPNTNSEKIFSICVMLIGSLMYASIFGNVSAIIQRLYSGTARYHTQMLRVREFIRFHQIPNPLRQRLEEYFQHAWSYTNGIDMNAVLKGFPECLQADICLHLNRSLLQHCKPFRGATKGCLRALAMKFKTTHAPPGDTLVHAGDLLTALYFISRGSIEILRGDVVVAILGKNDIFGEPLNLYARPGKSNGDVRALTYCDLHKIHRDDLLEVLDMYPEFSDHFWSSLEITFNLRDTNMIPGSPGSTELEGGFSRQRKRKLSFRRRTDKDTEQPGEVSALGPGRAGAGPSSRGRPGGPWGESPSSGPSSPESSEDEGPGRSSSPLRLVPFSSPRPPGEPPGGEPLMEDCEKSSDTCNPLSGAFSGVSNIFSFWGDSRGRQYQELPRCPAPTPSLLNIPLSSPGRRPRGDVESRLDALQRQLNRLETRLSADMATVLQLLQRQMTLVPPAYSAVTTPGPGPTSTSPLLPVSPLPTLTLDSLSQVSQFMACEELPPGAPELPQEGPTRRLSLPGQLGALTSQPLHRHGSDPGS

[8] = molecular target: CYP2C9 (Homo sapiens, UniProt P11712); experiment: Inhibition of CYP2C9 (unknown origin) at 10 uM relative to control; assay type: ADME
CYP2C9, sequence (P11712 whole entry): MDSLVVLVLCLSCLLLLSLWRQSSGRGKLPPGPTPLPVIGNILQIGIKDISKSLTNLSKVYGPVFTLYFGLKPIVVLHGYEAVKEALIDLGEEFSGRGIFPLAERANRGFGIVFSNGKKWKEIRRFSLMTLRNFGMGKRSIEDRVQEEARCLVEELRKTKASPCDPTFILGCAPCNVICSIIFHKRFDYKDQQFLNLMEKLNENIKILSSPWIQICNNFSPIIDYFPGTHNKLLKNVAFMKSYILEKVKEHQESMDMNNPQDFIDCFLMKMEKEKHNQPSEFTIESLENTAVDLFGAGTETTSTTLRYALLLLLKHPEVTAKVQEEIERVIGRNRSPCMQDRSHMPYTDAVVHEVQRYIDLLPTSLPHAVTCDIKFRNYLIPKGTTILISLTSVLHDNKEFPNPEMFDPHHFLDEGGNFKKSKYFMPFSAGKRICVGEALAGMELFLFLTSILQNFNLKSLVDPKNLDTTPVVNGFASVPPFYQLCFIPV

[9] = molecular target: T6, CYP2C8 (Homo sapiens, UniProt P10632); experiment: Inhibition of CYP2C8 (unknown origin) at 10 uM relative to control; assay type: ADME
T6 sequence (P10632 whole entry): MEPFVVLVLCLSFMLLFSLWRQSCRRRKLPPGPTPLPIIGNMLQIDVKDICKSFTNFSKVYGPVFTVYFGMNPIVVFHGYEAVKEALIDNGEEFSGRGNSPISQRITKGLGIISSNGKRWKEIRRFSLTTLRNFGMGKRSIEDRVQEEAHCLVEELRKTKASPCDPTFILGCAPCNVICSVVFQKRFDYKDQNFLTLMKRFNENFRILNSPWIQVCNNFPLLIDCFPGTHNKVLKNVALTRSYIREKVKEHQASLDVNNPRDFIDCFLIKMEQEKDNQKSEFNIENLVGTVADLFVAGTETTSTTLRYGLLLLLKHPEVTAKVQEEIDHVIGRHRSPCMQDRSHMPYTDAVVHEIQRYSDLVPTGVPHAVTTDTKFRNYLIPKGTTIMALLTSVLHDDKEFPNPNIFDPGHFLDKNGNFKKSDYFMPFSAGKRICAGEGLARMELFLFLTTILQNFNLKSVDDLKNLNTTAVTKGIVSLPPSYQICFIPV

[10] = molecular target: CYP3A4 (Homo sapiens, UniProt P08684); experiment: Inhibition of CYP3A4 (unknown origin) at 10 uM relative to control; assay type: ADME
CYP3A4, sequence (P08684 whole entry): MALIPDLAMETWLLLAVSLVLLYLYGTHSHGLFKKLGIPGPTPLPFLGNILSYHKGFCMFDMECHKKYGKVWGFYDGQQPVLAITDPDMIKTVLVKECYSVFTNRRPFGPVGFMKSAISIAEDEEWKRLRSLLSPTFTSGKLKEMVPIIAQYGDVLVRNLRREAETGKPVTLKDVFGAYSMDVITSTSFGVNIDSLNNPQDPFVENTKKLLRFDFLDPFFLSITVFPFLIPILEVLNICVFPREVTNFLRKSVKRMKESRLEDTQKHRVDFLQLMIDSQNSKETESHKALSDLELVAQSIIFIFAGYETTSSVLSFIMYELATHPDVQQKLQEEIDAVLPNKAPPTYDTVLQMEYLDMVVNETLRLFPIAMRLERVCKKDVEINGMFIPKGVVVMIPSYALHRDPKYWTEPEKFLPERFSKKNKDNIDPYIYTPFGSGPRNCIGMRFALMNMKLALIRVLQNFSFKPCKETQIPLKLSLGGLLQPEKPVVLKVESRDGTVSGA

[11] = molecular target: T5, Voltage-gated inwardly rectifying potassium channel KCNH2; experiment: Inhibition of human ERG in presence of BSA
[12] = molecular target: CYP2D6 (Homo sapiens, UniProt P10635); experiment: Inhibition of CYP2D6 (unknown origin) at 10 uM relative to control; assay type: ADME
CYP2D6, sequence (P10635 whole entry): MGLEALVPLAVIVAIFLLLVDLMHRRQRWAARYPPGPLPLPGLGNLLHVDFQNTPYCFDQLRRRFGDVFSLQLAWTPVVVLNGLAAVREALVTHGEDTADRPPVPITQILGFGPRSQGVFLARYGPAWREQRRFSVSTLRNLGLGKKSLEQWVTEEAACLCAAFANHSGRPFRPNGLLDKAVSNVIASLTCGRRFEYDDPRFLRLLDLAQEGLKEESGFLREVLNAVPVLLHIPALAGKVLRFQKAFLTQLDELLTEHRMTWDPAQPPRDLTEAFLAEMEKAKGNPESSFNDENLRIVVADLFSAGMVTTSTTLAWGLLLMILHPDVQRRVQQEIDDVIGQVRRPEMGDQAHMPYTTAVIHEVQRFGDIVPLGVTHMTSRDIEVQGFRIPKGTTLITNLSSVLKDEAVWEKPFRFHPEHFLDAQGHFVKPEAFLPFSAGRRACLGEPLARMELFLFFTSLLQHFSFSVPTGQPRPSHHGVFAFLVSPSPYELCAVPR

[13] = Clearance in cynomolgus monkey at 0.1 mg/kg, iv or 1 mg/kg, po; assay type: ADME, organism-based, Macaca fascicularis; settings: in vivo
[14] = AUC (0 to 24 hrs) in cynomolgus monkey at 1 mg/kg, po; assay type: ADME, organism-based, Macaca fascicularis; set-up: dose 1 mg/kg, time < 24 hr, route oral; settings: in vivo
[15] = molecular target: T7, CYP1A2 (Homo sapiens, UniProt P05177); experiment: Inhibition of CYP1A2 (unknown origin) at 10 uM relative to control; assay type: ADME
T7 sequence (P05177 whole entry): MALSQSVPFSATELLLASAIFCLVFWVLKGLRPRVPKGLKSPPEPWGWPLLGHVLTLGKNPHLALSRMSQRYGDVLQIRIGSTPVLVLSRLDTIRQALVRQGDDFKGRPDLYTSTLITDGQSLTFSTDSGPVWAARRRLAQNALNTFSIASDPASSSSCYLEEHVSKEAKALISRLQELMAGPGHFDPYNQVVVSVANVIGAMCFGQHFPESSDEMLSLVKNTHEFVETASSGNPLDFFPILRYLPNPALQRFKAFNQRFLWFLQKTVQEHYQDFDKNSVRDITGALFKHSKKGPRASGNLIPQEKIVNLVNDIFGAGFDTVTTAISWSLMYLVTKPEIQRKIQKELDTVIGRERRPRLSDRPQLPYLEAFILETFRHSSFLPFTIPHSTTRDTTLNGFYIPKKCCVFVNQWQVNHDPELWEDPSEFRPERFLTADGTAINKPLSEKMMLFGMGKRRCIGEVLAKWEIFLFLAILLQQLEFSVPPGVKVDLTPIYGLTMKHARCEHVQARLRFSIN

[16] = AUC (0 to 24 hrs) in cynomolgus monkey at 0.1 mg/kg, iv; assay type: ADME, organism-based, Macaca fascicularis; set-up: dose 0.1 mg/kg, time < 24 hr, route intravenous; settings: in vivo
[17] = Fraction unbound in cynomolgus monkey plasma at 0.1 mg/kg, iv or 1 mg/kg, po; assay type: ADME, organism-based, Macaca fascicularis
[18] = Metabolic stability in human liver microsomes; assay type: ADME, microsome; settings: read-out: Stability
[19] = Cytotoxicity against human B cells assessed as ATP content at 30 uM by cell titer glo-based luminescence assay relative to control; settings: read-out: Activity
[20] = Solubility of the compound in buffer solution at pH 6.8; assay type: physicochemical
[21] = Solubility of the compound in water at pH 6.8; assay type: physicochemical

Compound | IC50 [1] [µM] | IC50 [2] [µM] | IC50 [4] [µM] | other results
CC(=O)Nc1ccc(S(=O)(=O)N2CCC(Nc3ccc(C#N)cn3)CC2)cc1 | > 30 | – | – | –
COc1ccc(S(=O)(=O)N2CCC(Nc3cc(C#N)ccn3)CC2)cc1 | > 30 | – | – | –
N#Cc1ccc(NC2CCN(S(=O)(=O)c3ccc(-c4ccccc4)cc3)CC2)nc1 | 0.29 | > 30 | > 30 | IC50 [3]: 0.28 µM
CC(C)(C)c1ccc(S(=O)(=O)N2CCC(Nc3ccc(C#N)cn3)CC2)cc1 | – | – | – | solubility [20]: < 0.1 µg/mL; solubility [21]: < 0.1 µg/mL
COc1ccc(S(=O)(=O)N2CCC(Nc3ccc(C#N)cn3)C2)cc1 (stereo not given) | > 30 | – | – | –
COc1ccc(S(=O)(=O)N2CCC(Nc3ccc(C#N)cc3)CC2)cc1 | 1.9 | – | – | microsomal CLint [18]: 69 µL/min/mg; viability at 30 µM [19]: 44.9%
Cc1cccc(S(=O)(=O)N2CCC(Nc3ccc(C#N)cn3)CC2)c1 | > 30 | – | – | –

Now from value to molecule, other results behind:

IC50 [1] [µM] | IC50 [2] [µM] | IC50 [4] [µM] | Compound | other results
3.1 | > 30 | > 30 | Cc1ccc(S(=O)(=O)N2CCC(Nc3ccc(C#N)cn3)CC2)cc1 | IC50 [3]: 1.3 µM
– | > 30 | > 30 | NC(=O)c1ccc(-c2ccc(S(=O)(=O)[C@H]3CC[C@H](Nc4ccc(C(F)(F)F)cn4)CC3)cc2)cc1 | –
– | 9.4 | > 30 | NC(=O)c1cc(-c2ccc(S(=O)(=O)[C@H]3CC[C@H](Nc4ccc(C(F)(F)F)cn4)CC3)cc2)ccn1 | Vd [5]: 0.704 L/kg; bioavailability [6]: 65%; inhibition (INH) [7]: < 50%; inhibition at 10 µM [8]: 51%; inhibition at 10 µM [9]: < 50%; inhibition at 10 µM [10]: < 50%; inhibition (INH) [11]: < 50%; inhibition at 10 µM [12]: < 50%; clearance [13]: 1.1 mL/min/kg; AUC(0-t) at 24 h [14]: 10000 ng·h/mL; inhibition at 10 µM [15]: < 50%; AUC(0-t) at 24 h [16]: 1550 ng·h/mL; fraction unbound [17]: 0.01
2.5 | – | – | COc1ccc(S(=O)(=O)N2CCC(Nc3ccc(C#N)cn3)CC2)cc1 | microsomal CLint [18]: 19 µL/min/mg; viability at 30 µM [19]: 72.7%
> 30 | – | – | N#Cc1ccc(NC2CCN(S(=O)(=O)c3cccc(-c4ccccc4)c3)CC2)nc1 | –
– | > 30 | > 30 | N#Cc1ccc(-c2ccc(S(=O)(=O)[C@H]3CC[C@H](Nc4ccc(C(F)(F)F)cn4)CC3)cc2)cc1 | –
7.4 | – | – | COc1ccc(S(=O)(=O)N2CCC(Nc3cccc(C#N)n3)CC2)cc1 | –
– | 18 | > 30 | NC(=O)c1ccc(-c2ccc(S(=O)(=O)[C@H]3CC[C@H](Nc4ccc(C(F)(F)F)cn4)CC3)cc2)cn1 | –
> 30 | – | – | COc1ccc(NC2CCN(S(=O)(=O)c3ccc(OC)cc3)CC2)cc1 | –
1.5 | – | – | N#Cc1ccc(NC2CCN(S(=O)(=O)c3ccc(Cl)cc3)CC2)nc1 | –
